# Test system: ciliated epithelium of the trachea of chicken embryos
# Test: standard test for examining ciliary function (ciliary frequency of tracheal ciliated epithelium tissue pieces)
# Format: cell-based
# Details: orienting tests; compared with results of table 2
# Description: In a standard test for examining ciliary function, a conventional preparation for nasal administration having a phosphate/citrate buffer and benzalkonium chloride as preservative was compared in each case with a preparation of the invention having malic acid as buffer and benzalkonium chloride as preservative.
# Pieces of tissue from ciliated epithelium of the trachea of chicken embryos are employed in the tests on which the comparison is based, reference being made for details of the tests to S. G. Romejn et al., Int. J. of Pharmac. 135 (1996) 137-145 and van De Donk et al., Rhinology, 20 (1982) 81-87.
# The self-cleaning of the nasal mucosa is then simulated by washing out the respective solutions and adding Ringer's solution for 45 min.
# After exposure for 15 min, the ciliary frequency is reduced distinctly less by the exemplary solutions with malic acid buffer than by the reference solutions. The self-cleaning of the nasal mucosa is then simulated by washing out the test solutions and adding Ringer's solution for 45 min. A distinctly better recovery of the ciliary beating force, which extends to more than ¾ of the initial beating force (of 100%), is achieved thereby with the exemplary solutions with malic acid buffer. […]
row,reduction in ciliary activity and regeneration of the cilia (result in words),Compound
1,similar,O=C(O)c1cc(=O)c2c(OCC(O)COc3cccc4oc(C(=O)O)cc(=O)c34)cccc2o1 [cromoglicic acid]
2,similar,calcitonin [calcitonin (from salmon)]
